Tests used:
[1] = biological target: T1, SK2 channels in Jurkat T lymphocytes (Homo sapiens, UniProt Q9H2S1); assay: Whole-cell patch clamp of native SK2 current in Jurkat T lymphocytes; assay type: cell-based; conditions: transfected Jurkat T lymphocytes
T1 construct: endogenous in cells; host or cells: Jurkat T lymphocytes
Experimental: (§1) PC12 and Jurkat T cells were studied in the whole cell configuration of the patch clamp technique with a holding potential of −80 mV. SK and Kv current amplitude were determined in untransfected cells or in cells transfected with SKCa3-1b-GFP, SKCa3-1b-IRES-GFP, or control constructs (GFP vector alone, GFP-Kv1.7). […] Brightly GFP-positive cells were identified under a fluorescence microscope to allow the analysis of cells expressing high levels of the channel constructs for electrophysiological studies. Control constructs were expressed at equivalently high levels as assessed by the intensity of the GFP signal.
(§2) To activate SK channels, the pipette solution contained (in mM): 145 K^+ aspartate, 2 MgCl2, 10 HEPES, 10 K2EGTA, and 8.5 CaCl2 (1 μM free Ca^2+), pH 7.2, 290–310 mOsm. […] The amplitude of the KV current was measured as the maximum current at 30 mV in 160 Na^+ aspartate. […]
(§3) Human Jurkat T lymphocyte cell line was chosen for these experiments because they express SK2 channels and no other SK channels, along with voltage-gated Kv1.3 channels that could serve as an internal control (Fanger et al, J. Biol. Chem. 2001; 276: 12249–12256; Grissmer et al, J. Gen. Physiol. 1992; 99: 63–84; Desai et al, J. Biol. Chem. 2000; 275: 39954–39963.). Using the electrophysiological protocol described above for PC12 cells, SK2 and Kv1.3 currents in Jurkat cells were measured. […]

[2] = biological target: T2, Kv1.3 channels in Jurkat T lymphocytes (Homo sapiens, UniProt P22001); assay: Whole-cell patch clamp of Kv1.3 current in Jurkat T lymphocytes (internal control); assay type: cell-based; conditions: transfected Jurkat T lymphocytes
T2 construct: endogenous in cells; host or cells: Jurkat T lymphocytes
T2 sequence (P22001 whole entry): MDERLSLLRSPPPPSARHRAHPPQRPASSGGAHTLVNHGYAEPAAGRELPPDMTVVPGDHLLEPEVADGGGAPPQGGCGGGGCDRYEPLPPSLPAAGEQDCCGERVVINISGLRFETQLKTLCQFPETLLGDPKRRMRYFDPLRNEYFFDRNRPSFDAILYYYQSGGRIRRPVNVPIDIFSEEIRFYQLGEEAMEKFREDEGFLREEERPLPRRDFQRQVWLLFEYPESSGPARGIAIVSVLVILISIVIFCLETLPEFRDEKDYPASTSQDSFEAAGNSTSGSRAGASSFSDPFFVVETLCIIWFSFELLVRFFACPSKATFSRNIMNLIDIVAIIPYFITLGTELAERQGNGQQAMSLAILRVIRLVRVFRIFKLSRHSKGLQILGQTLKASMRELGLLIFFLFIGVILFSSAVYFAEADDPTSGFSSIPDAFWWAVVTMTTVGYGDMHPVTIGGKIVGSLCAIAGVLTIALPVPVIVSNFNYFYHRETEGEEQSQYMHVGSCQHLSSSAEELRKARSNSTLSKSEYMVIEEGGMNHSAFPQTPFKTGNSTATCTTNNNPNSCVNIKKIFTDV
Experimental: as §1, §2, §3

SKCa3-1a currents = assay: Co-expression with SKCa3-1a in mammalian cells, calcium-activated currents; assay type: cell-based; conditions: untagged or with a GFP tag
Chain of SKCa3-1a currents (Q9UGI6 81-731): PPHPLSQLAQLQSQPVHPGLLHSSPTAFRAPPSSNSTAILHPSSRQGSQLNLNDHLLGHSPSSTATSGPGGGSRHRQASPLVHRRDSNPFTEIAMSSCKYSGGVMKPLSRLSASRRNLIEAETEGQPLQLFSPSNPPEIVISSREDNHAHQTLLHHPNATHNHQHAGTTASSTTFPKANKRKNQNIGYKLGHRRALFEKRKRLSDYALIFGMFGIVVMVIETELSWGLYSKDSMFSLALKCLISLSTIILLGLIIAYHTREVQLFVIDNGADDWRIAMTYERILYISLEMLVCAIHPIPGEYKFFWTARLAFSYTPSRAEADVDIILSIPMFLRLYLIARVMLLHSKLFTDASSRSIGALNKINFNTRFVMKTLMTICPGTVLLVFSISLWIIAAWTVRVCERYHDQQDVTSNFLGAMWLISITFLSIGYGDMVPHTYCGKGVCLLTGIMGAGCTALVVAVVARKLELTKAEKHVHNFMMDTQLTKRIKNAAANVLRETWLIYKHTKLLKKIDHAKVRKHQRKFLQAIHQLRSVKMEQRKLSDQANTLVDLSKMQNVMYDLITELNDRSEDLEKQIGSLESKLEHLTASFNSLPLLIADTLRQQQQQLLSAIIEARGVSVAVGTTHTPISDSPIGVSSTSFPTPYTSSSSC
Description: When normally expressed in mammalian cells, native or green fluorescence protein (GFP) tagged SKCa3-1a produces robust apamin- and Leiurus toxin-sensitive calcium-activated currents (Shakkottai et al., J. Biol. Chem. 276 (46): 43145–43151, 2001.).

GFP-SKCa1 currents = assay: Co-expression with GFP-SKCa1 in mammalian cells, calcium-activated currents; assay type: cell-based; conditions: expressed in mammalian cells
Chain of GFP-SKCa1 currents (Q92952 2-543): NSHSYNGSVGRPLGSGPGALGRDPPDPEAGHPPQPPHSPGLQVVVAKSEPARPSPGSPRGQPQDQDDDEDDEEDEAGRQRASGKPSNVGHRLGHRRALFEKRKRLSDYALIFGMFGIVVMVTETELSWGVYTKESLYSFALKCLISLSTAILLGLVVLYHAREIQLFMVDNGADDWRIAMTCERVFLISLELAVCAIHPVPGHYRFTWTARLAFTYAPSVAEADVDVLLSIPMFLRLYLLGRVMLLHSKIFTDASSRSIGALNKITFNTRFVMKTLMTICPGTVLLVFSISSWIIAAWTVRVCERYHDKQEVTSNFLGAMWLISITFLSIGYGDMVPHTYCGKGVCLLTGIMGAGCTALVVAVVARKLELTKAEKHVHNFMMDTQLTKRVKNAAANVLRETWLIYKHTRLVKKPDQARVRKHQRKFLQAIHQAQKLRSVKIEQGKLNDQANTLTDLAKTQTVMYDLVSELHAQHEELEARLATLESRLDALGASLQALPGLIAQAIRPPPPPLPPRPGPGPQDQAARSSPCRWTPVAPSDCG
Description: GFP-SKCa1 produces robust calcium-activated currents when expressed in COS-7 cells (Shakkottai et al., J. Biol. Chem. 276 (46): 43145–43151, 2001.). When co-expressed with fluorescently labeled SKCa3-1b (Tomita et al, 2002 Mol. Psych. In press) or fluorescently labeled SKCa3-1c, dominant-negative suppression of SKCa3-1a is seen. Similarly, fluorescently labeled SKCa3-1b (Tomita et al, 2002 Mol. Psych. In press) and fluorescently labeled SKCa3-1c dominant-negatively suppress endogenous SKCa currents present in PC12 cells (Sun et al., J. Hum. Genet. 46, 463–470, 2001.).

SKCa and IKCa1 channel = conditions: reported in the literature; cited from earlier work

T1 sequence (Q9H2S1 whole entry): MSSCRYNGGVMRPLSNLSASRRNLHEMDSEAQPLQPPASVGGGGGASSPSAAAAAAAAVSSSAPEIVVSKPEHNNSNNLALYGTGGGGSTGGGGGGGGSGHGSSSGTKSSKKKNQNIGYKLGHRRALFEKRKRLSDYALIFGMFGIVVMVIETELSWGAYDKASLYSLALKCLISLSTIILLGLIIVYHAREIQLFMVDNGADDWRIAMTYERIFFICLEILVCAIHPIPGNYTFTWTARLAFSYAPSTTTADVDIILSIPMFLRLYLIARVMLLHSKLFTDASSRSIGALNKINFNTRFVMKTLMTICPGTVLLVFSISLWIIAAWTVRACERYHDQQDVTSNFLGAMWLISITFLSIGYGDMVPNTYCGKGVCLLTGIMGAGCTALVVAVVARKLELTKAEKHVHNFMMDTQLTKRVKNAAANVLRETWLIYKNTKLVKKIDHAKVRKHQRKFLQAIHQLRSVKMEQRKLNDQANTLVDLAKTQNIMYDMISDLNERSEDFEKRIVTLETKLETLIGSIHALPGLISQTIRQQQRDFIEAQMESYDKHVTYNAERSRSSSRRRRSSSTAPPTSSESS

## SKCa3-1b: isoform variant of the SK3 gene (SEQ ID NO: 2) using exon 1b, lacking N-terminus and S1 segment
[1]
  effect of transfection on native SK2 current: suppressed
[2]
  effect of transfection on control Kv1.3 current: unaffected
SKCa3-1a currents
  effect of co-expression on SKCa3-1a current: selective dramatic inhibition
GFP-SKCa1 currents
  effect on GFP-SKCa1 currents: negative dominantly suppress

## SKCa3-1c: isoform variant of the SK3 gene (SEQ ID NO: 4) using exon 1c, lacking N-terminus and S1 segment
SKCa3-1a currents
  effect of co-expression on SKCa3-1a current: comparable results
GFP-SKCa1 currents
  effect on GFP-SKCa1 currents: negative dominantly suppress

## CCn1c(=O)[nH]c2ccccc21 [1-ethyl-2-benzimidazolinone]
SKCa and IKCa1 channel
  effect on SKCa and IKCa1 channel opening: enhance SKCa and IKCa1 channel opening
